Data published in US9839614B2, “Nanoparticle and polymer formulations for thyroid hormone analogs, antagonists, and formulations and uses thereof” (NANOPHARMACEUTICALS LLC, priority 2009, dated 2017).

Legend:
[1] = system: V-79 cells; conditions: reduced from 3.4; cited from earlier work
[2] = cited from earlier work
[3] = system: chick chorioallantoic membrane (CAM) blood vessel branching; assay: Chorioallantoic membrane (CAM) model of angiogenesis; format: in vivo
Experimental: In vivo neovascularization was examined by methods described previously. 9-12 Ten-day-old chick embryos were purchased from SPAFAS (Preston, Conn.) and incubated at 37° C. with 55% relative humidity. A hypodermic needle was used to make a small hole in the shell concealing the air sac, and a second hole was made on the broad side of the egg, directly over an avascular portion of the embryonic membrane that was identified by candling. A false air sac was created beneath the second hole by the application of negative pressure at the first hole, causing the CAM to separate from the shell. A window approximately 1.0 cm^2 was cut in the shell over the dropped CAM with a small-crafts grinding wheel (Dremel, division of Emerson Electric Co.), allowing direct access to the underlying CAM. […] Sterile disks of No. 1 filter paper (Whatman International) were pretreated with 3 mg/mL cortisone acetate and 1 mmol/L PTU and air dried under sterile conditions. Thyroid hormone, hormone analogs, FGF2 or control solvents, and inhibitors were then applied to the disks and the disks allowed to dry. The disks were then suspended in PBS and placed on growing CAMs. […] At 24 hours, the MAPK cascade inhibitor PD 98059 was also added to CAMs topically by means of the filter disks.
After incubation at 37° C. with 55% relative humidity for 3 days, the CAM tissue directly beneath each filter disk was resected from control and treated CAM samples. Tissues were washed 3× with PBS, placed in 35-mm Petri dishes (Nalge Nunc), and examined under an SV6 stereomicroscope (Zeiss) at X50 magnification. Digital images of CAM sections exposed to filters were collected using a 3-charge-coupled device color video camera system (Toshiba) and analyzed with Image-Pro software (Media Cybernetics). The number of vessel branch points contained in a circular region equal to the area of each filter disk were counted. One image was counted in each CAM preparation, and findings from 8 to 10 CAM preparations were analyzed for each treatment condition (thyroid hormone or analogs, FGF2, FGF2 antibody, PD 98059). In addition, each experiment was performed 3 times. The resulting angiogenesis index is the mean±SEM of new branch points.

[4] = system: ERK1/2; assay: MAPK activation in ECV304 cells (nuclear phosphorylated ERK1/2 immunoblot); format: cell-based; conditions: T4 10^−7 mol/L
Experimental: ECV304 endothelial cells were cultured in M199 medium with 0.25% hormone-depleted serum 13 for 2 days. […] Nuclear fractions were pre-pared from all samples by the method reported previously (see Li et al., Carcinogenesis 29:62-69 (2008)), the proteins separated by polyacrylamide gel electrophoresis, and transferred to membranes for immunoblotting with antibody to phosphorylated ERK 1/2.

[5] = system: FGF2 cDNA; assay: RT-PCR of FGF2 in ECV304 cells; format: cell-based; conditions: T4 10^−7 mol/L, 6 to 48 hours
Experimental: RNA (1 μg) was subjected to reverse transcription-polymerase chain reaction (RT-PCR) using the Access RT-PCR system (Promega). Total RNA was reverse transcribed into cDNA at 48° C. for 45 minutes, then denatured at 94° C. for 2 minutes. Second-strand synthesis and PCR amplification were performed for 40 cycles with denaturation at 94° C. for 30 s, annealing at 60° C. for 60 s, and extension at 68° C. for 120 s, with final ex-tension for 7 minutes at 68° C. after completion of all cycles. PCR primers for FGF2 were as follows: FGF2 sense strand 5′-[…]-3′ (SEQ ID NO:1), antisense strand 5′ […]-3′ (SEQ ID NO:2); the length of the PCR product was 734 bp. Primers for GAPDH included the sense strand 5′-[…]-3′ (SEQ ID NO:3), and antisense strand 5′-[…]-3′ (SEQ ID NO:4); the length of the PCR product was 218 bp. […] The target bands of the gel were quantified using Lablmage software (Kapelan), and the value for [FGF2/GAPDH]X10 calculated for each time point.

[6] = estimated; cited from earlier work

SMILES	Dq value [1]	inhibition of PLDR [2]	generation of new blood vessels from existing vessels promoted ([3]; 10^−7-10^−9M)	combined effect of sub-maximal hormone and growth factor ([3]; T4 0.05 μmol/L + FGF2 0.5 μg/mL)	stimulation of angiogenesis ([3]; T4, anti-FGF2 experiments (FIG. 5A))	time of maximal level of nuclear phosphorylated ERK1/2 [4]	time to appearance of phosphorylated ERK1/2 in cell nuclei [4]	FGF2 cDNA abundance corrected for GAPDH [5]	pKa, COOH (carboxylic acid) group [6]	pKa, NH2 (amino) group [6]
NC(=O)c1cccc(N)c1 [Compound 3AB, 3-aminobenzamide]	1 Gy	~70%	–	–	–	–	–	–	–	–
N[C@@H](Cc1cc(I)c(Oc2cc(I)c(O)c(I)c2)c(I)c1)C(=O)O [Compound T4, L-thyroxine]	–	–	two-to three-fold	additive	1.5 fold	30 min	≤ 15 min	increase in abundance of FGF2 cDNA	~2.0	approximately 9.0
